# Reference: EP3281632A1, “ARGON FOR USE IN THE PREVENTION OF BOTH CARDIAC AND CEREBRAL INJURY INDUCED BY ISCHEMIA/REPERFUSION FOLLOWING CARDIAC ARREST” (Societa'Italiana Acetilene & Derivati S.I.A.D. S.p.A. in …, priority 2016, dated 2018)
# Columns and labels:
# [1] = tested on: rats resuscitated after cardiac arrest; conditions: post resuscitation ventilation with 70% argon, cited from earlier work
# cardiac arrest, pigs = conditions: cited from earlier work
# [2] = tested on: left anterior descending coronary artery occlusion (LAD); conditions: rabbits; three 5-min cycles of 70% argon in oxygen prior to 30 min LAD occlusion; in comparison to control ventilation; cited from earlier work
# [3] = tested on: acute myocardial infarction by LAD occlusion in the rat; assay: Model of acute myocardial infarction by LAD occlusion in the rat; type: in vivo
# Method: In a model of acute myocardial infarction by LAD occlusion in the rat, ventilation with argon reduced myocardial injury. More in details, the LAD occlusion was removed after 30 min; 5 min before reperfusion, animals were randomized to 1 hour ventilation with: (1) 70% argon - 30% oxygen; or (2) 70% nitrogen - 30% oxygen. […] Moreover, a reduced inflammatory response in terms of neutrophil infiltration in the argon ventilation group compared to control group was observed (72 cells/mm^2 vs. 92 cells/mm^2).
# [4] = tested on: cardiac arrest and CPR in the pig; assay: Severe model of cardiac arrest and CPR in the pig, 4 hr ventilation after CPR; type: in vivo; set-up: circulating levels of hs-cTnT (median): unit not given here
# Method: In a severe model of cardiac arrest and CPR in the pig, treatment with inhaled argon allowed for concurrent cardiac and cerebral protection. After 12 min of untreated cardiac arrest and 5 min of CPR, animals were subjected to 4 hr ventilation with (a) 70% argon - 30% 02 or (b) 70% N2 - 30% 02.
# [5] = tested on: cardiac arrest and CPR in the rat; assay: Model of cardiac arrest and CPR in the rat, argon ventilation started during CPR; type: in vivo
# Method: In a model of cardiac arrest and CPR in the rat, treatment with inhaled argon was initiated early, concurrently with chest compression prior to resuscitation. After 7 min of untreated cardiac arrest, 5 min of CPR were initiated and animals were subjected to ventilation with (a) 70% argon - 30% 02 or (b) 70% N2 - 30% 02. The above ventilation strategies were continued up to 2 hrs following resuscitation.
# [6] = during the 4 hr of observation, compared to controls
# [7] = argon during CPR and up to 2 hrs after resuscitation, compared to controls
structure (smiles),measurement,setting,value
[Ar] [argon],neurological deficit score,[1]; at all time points,significant improvements
same,neuronal injury (histology),[1],significant reduction
same,neurological recovery,"cardiac arrest, pigs; 70% argon-30% oxygen after ROSC, in contrast to nitrogen and oxygen",fast and complete
same,post resuscitation increase in plasmatic cardiac troponin T,"cardiac arrest, pigs; 8 min untreated cardiac arrest, 5 min CPR, 70% argon-30% oxygen after ROSC",three-fold lower
same,brain injury (histopathology),"cardiac arrest, pigs; compared to control",lesser brain injury
same,respiratory exchange or arterial blood gases,"cardiac arrest, pigs; ventilation with argon",did not impair
same,reduction of myocardial infarct size,[2],22%
same,plasma level of myocardial troponin T,"[3]; 30 min LAD occlusion, 1 hour ventilation 70% argon - 30% oxygen from 5 min before reperfusion, after 6 hours, control 7432 ng/l, p < 0.05",3128 ng/L
same,neutrophil infiltration,"[3]; LAD occlusion, argon ventilation group, control 92 cells/mm^2",72 cells/mm^2
same,Cerebral Performance Category,"[4]; 12 min untreated cardiac arrest, 5 min CPR, 4 hr ventilation with 70% argon - 30% 02, control 3.4 ± 1.6",1.7 ± 1.3
same,circulating levels of NSE (median),"[4]; 4 hr ventilation 70% argon - 30% 02, control 21.2 ng/mL, p not significant",8.5 ng/mL
same,circulating levels of hs-cTnT (median),"[4]; 4 hr ventilation 70% argon - 30% 02, control 8015 ng/mL, p < 0.05",1332
same,myocardial infarct size,"[4]; after argon treatment, compared to controls",significantly lower
same,heart rate,[4]; [6],significantly lower
same,mean arterial pressure,[4]; [6],higher
same,stroke volume,[4]; [6],higher
same,recovery of systolic myocardial function,"[4]; evaluated echocardiographically at 96 hr, compared to controls",significantly better recovery
same,resuscitation rate,"[5]; 7 min untreated cardiac arrest, 5 min CPR with 70% argon - 30% 02 ventilation, control 85%",93%
same,post resuscitation coronary perfusion pressure,[5]; [7],higher
same,post resuscitation mean arterial pressure,[5]; [7],higher
same,lactate/pyruvate ratio in the hippocampus,"[5]; cerebral microdialysis, compared to controls",lower
same,left ventricle ejection fraction,[5]; compared to the control ventilation,trend toward better
same,neurological recovery,[5]; compared to those ventilated with nitrogen and oxygen,significantly faster and better
same,troponin T release,"[5]; trend, compared to the control ventilation",lower
